Source: PMC8698672, “Selective Anticancer and Antimicrobial Metallodrugs Based on Gold(III) Dithiocarbamate Complexes” (Biomedicines, 2021)

Tests used:
Caco-2/TC7 cells = experiment: Oxidative stress damage, protein carbonyl levels (DNPH); format: cell-based, human; conditions: 20 μM, 24 h
Description: Cell homogenates needed for this assay were prepared according to a previously described method. Protein oxidation was analyzed by carbonyl-level measurement as previously described. Cell homogenates were incubated with the classical carbonyl reagent 2,4-dinitrophenylhydrazine (DNPH), and protein carbonylation was measured spectrophotometrically at 375 nm. The results were calculated in nmol carbonyl groups mg^−1 protein.
According to the literature, gold complexes act as anticancer agents by the disruption of redox homeostasis. As a result, the concentration of ROS species rises and consequently, main biomolecules, such as lipids, proteins, or even DNA, can be oxidized. However, tumor cells present an overproduction of ROS species due to their high metabolism. The most common anticancer strategy is promoting a higher oxidative damage in biomolecules to trigger the apoptosis process. […] In this study, we evaluated the oxidation levels of the carbonyl groups present in proteins by the established method of 2,4-dinitrophenylhydrazine (DNPH).
Figure 6 Carbonyl levels (nmol mg^−1 protein) in Caco-2/TC7 cells treated with vehicle DMSO (control) or gold(III) complexes (24 h, 20 μM). Values are expressed as mean values ± SEM (n ≥ 6 experiments). ** p < 0.01; *** p < 0.001 vs. control.

[1] = Stability in phosphate buffer (pH 7.4, 37 °C) followed by UV–Vis over 24 h; format: physicochemical; conditions: 50 µM
Description: (§1) The stability of the gold complexes was analyzed by absorption UV spectroscopy. UV–Vis absorption spectra of the complexes were recorded on a Thermo Scientific spectrophotometer (Madrid, Spain). Solutions of C1–6 (5 × 10^−5 M) in 10 mM phosphate buffer (pH = 7.4, 137 mM NaCl) were prepared from 20 mM DMSO solutions of the complexes and thereafter monitored by measuring the electronic spectra over 24 h at 37 °C. To evaluate the stability in the presence of biological reductants, all complexes were pre-solved in a minimum amount of DMSO and then diluted in 10 mM phosphate buffer (pH 7.4, 20 mM NaCl) to a final concentration of 10 µM [41]. All experiments were measure on a quartz microplate. Studies with L-glutathion reduced (GSH) and ascorbic acid (AsA) were conducted by increasing the final concentration of 0 to 50 µM (GSH) and from 0–20 µM for AsA.
Due to the aqueous nature of the bloodstream, studies to understand the behavior of our complexes in such an environment were considered necessary in order to determine the stability in simulated physiological conditions, pH = 7.4 and 37 °C. […] Besides, in the cases of complexes C1–4, a low-intensity broad band was detected (322 nm) (Figure 2 and Figure S3). […]
This is usually associated with the formation of Au(III)-OH bonds, increasing the water solubility and, consequently, the intensity of absorbance. […]

[2] = system: Undifferentiated Caco-2/TC7 cell; experiment: Apoptosis/necrosis, Annexin V-FITC / 7-AAD flow cytometry; format: cell-based, human; conditions: 20 μM, 24 h
Description: For the studies of apoptosis, using the detection of phosphatidylserine in the outer layer of the plasma membrane, an Annexin V-FITC Apoptosis Detection kit (Immunostep, Salamanca, Spain) was used. After incubation with the complexes, the cells were collected and transferred to flow-cytometry tubes. A negative control was prepared with untreated cells, which was used to define the basal level of apoptotic, necrotic, or dead cells. The staining with Annexin V-FITC and 7-Aminoactinomycin D (7-AAD) was performed according to the manufacturer’s recommendations. The cells were washed twice with temperate phosphate-buffered saline (PBS) and resuspended in 200 μL of 1x Annexin-binding buffer. After that, 2.5 μL Annexin V-FITC and 2.5 μL […] were added to each 50 μL of cell suspension. After incubation for 15 min at RT in the dark, 400 μL of 1× Annexin-binding buffer were added and analyzed by flow cytometry within 1 h. The signal intensity was measured using a Gallios Flow Cytometer (Beckman Coulter, Brea, CA, USA) and analyzed using the Kaluza Analysis Software (Beckman Coulter).
After obtaining great results from the cell viability studies, it was determined that only non-cytotoxic complexes on normal cells are good candidates as anticancer drugs, so complexes C1, C5, and C6 were selected for the following studies. Thus, we proceeded to elucidate the action mechanism of these three complexes to induce cell death. The most convenient cell death for anticancer drugs is apoptosis, since in this way no inflammation processes occur and it is carefully controlled. The apoptotic way is normally characterized by several morphological changes in the cell membrane, by which phosphatidylserine (PS) is exposed, moving from the inner part to the outer surface of the membrane. Thanks to this translocation, Annexin V (FITC-conjugated) can interact selectively with the PS, differentiating healthy cells from apoptotic cells. Besides, cells undergoing late apoptosis stages and necrotic cells present deep damage in the membrane that makes 7-aminoactinomycin D (7-AAD) access the nucleus. Therefore, by using flow cytometry, all different cell populations can be distinguished.
Figure 4 Undifferentiated Caco-2/TC7 cell apoptotic-state (a) and necrotic-state (b) analysis after 24 h of incubation with C1, C5, and C6 (20 µM).

[3] = Stability in the presence of reduced L-glutathione (GSH), UV–Vis; format: physicochemical; conditions: GSH 0–50 µM, PBS, 37 °C, 24 h
Description: as §1
This is usually associated with the formation of Au(III)-OH bonds, increasing the water solubility and, consequently, the intensity of absorbance. […] We observed that our complexes were stable with the addition of GSH over 24 h, even in a high excess of GSH to Au(III) complexes (50 vs. 16 µM) (Figure S4), since no evidence of decomposition or new bands was detected. […]

Row | SMILES | oxidized protein (carbonyl) levels vs control (Caco-2/TC7 cells) | Stability in PBS (UV–Vis spectra over time) [1] | necrosis [2] | percentage of cells in apoptosis vs control [2] | Stability towards GSH (UV–Vis spectra) [3]
1 | Cc1ccc(-c2ccccn2)[c]([Au+][S]C(=S)N(C)C)c1.F[P-](F)(F)(F)(F)F [Complex C1, [Au(tpy)(dmdtc)] PF6] | did not promote oxidative stress damage | absence of new bands around 550 nm | did not die because of necrosis | no significant differences | 
2 | CN(C)C(=S)[S][Au+][c]1ccccc1-c1ccccn1.F[P-](F)(F)(F)(F)F [Complex C2, [Au(ppy)(dmdtc)]PF6] |  |  |  |  | slight changes in intensity
3 | CCN(CC)C(=S)[S][Au+][c]1cc(C)ccc1-c1ccccn1.F[P-](F)(F)(F)(F)F [Complex C3, [Au(tpy)(dedtc)]PF6] |  |  |  |  | slight changes in intensity
4 | Cc1ccc2[c](c1)[Au-]1([S]C(N(Cc3ccccc3)Cc3ccccc3)=[S+]1)[n+]1ccccc1-2.F[P-](F)(F)(F)(F)F (stereo not shown) [Complex C5, [Au(tpy)(dbdtc)]PF6] | did not promote oxidative stress damage | slight increase in the intensity of 328 nm band | did not die because of necrosis | no significant differences | 
5 | F[P-](F)(F)(F)(F)F.S=C([S][Au+][c]1ccccc1-c1ccccn1)N(Cc1ccccc1)Cc1ccccc1 [Complex C6, [Au(ppy)(dbdtc)]PF6] | did not promote oxidative stress damage |  | did not die because of necrosis | no significant differences | 
